Where no end group is shown, it is not given here.
Key:
[1] = system: vTreg53 TCR; assay: vTreg53 TCR tetramer staining of single peptide-A^b yeast clone; type: binding, murine; conditions: 500 nM final tetramer concentration
Method: Figure 2. Identification of surrogate peptides recognized by the vTreg53 TCR. (A) The vTreg53 TCR was used to screen and isolate the peptide-MHC yeast display. vTreg53 TCR tetramer staining (500 nM of TCR-SA) together with c-Myc staining is shown for the naïve library and four consecutive rounds of selection. […] (C) Positional frequency representation from the deep sequencing of the third round of selection with vTreg53. (D) Positional frequency matrix based on the deep sequencing of the fourth round of the peptide-MHC yeast selection. […] Data shown are representative of at least two independent experiments. Figure 2—figure supplement 1. Evolution of peptide-Ab yeast display. […] TEXT PRINTED IN THE PICTURE: (B) Fat7: Fraction: 0.596 | (B) TMYKGPHAVAAFT: Fraction: 0.369 | (B) LMFKGPHAVAAFT: Fraction: 0.029 | (B) FTYKNPRPVAATG: Fraction: 0.006 | (B) Fat15: Fraction: 0.000 | (B) TMYKNPRPVAATG: Fraction: 0.000 | (B) TMYKNPRPVAATG: Fraction: 0.000 DOUBTS OF THE COPYIST ABOUT THIS PICTURE: Panel B: the Fraction values are shares of sequencing reads from a selection, so it is uncertain whether they count as a result for a substance. […]
Yeast were passaged in SDCAA and induced with SGCAA and selected with streptavidin (SA) - coated magnetic MACS beads (Miltenyi) coated with biotinylated TCR. […] Peptide-A^b surface expression was monitored with anti-c-myc (Cell Signaling) antibody staining. […]

[2] = system: HFD-fed B6.CD45.1^+ mice; assay: Anti-TNFα and Fat1562 immunization in HFD-fed mice with vTreg53 Treg transfer; type: in vivo, mouse; conditions: n ≥ 5, anti-TNFα 10 μg/g i.p. twice a week
From the text: Figure 7. Immunization with Fat1562 following vTreg53 Treg transfer ameliorates HFD-induced insulin resistance. (A–F) Metabolic indices of mice treated as in Figure 6A (n ≥ 7). (A) Body weight. (B) Insulin tolerance test (ITT). (C) Area over curve for ITT analysis. (D) Glucose tolerance test (GTT). (E) Area under curve for GTT analysis. (F) Plasma insulin levels after 6 hr of fasting. Data shown are representative of at least two independent experiments. (G) Scheme of the anti-TNFα experiment. (H) Number of total Treg cells in VAT (n ≥ 5). (I) Number of CD11c^hi inflammatory macrophages in VAT (n ≥ 5). (J) ITT (n ≥ 5). (K) Area over curve for ITT analysis (n ≥ 5). Data are mean ± SD. Figure 7—figure supplement 1. Absolute blood glucose levels. ITT analysis of mice transferred with vTreg53 TCR-tg Tregs and immunized with adjuvant/Fat1562 or adjuvant alone. Data shown are representative of at least two independent experiments (n ≥ 5). [drawing 7]
12-week-old B6.CD45.1^+ mice were fed with HFD and injected intraperitoneally with 10 μg/g body weight anti-TNFα (XT3.11, BioXCell) or isotype control IgG (HRPN, BioXCell) twice a week for 6 weeks, transferred with 0.4 million Treg cells from pooled Spl/LNs of 6-8wk-old male CD45.2^+ Tg^+ Foxp3-GFP^KI/y mice. […] One week after the IFA/peptides injection, ITT (0.75unit/kg insulin) was performed and the composition of different immunocytes were determined.
For GTT, mice were fasted for 15 hr overnight, weighed, and tested for fasting blood-glucose concentrations. […] Blood-glucose levels were measured before and 20, 40, 60, 90, and 120 min after glucose injection. […] Blood-glucose levels were measured before and 20, 40, 60, 90, and 120 min after insulin injection, and were normalized to the blood-glucose levels before insulin injection. The area under the curve (for GTT) or area over the curve (for ITT) were calculated using GraphPad Prism 7.0.

Row | Sequence | vTreg53 TCR-SA tetramer staining [1] | insulin sensitivity ([2]; ITT, 0.75unit/kg insulin) | number of CD11c^hi pro-inflammatory macrophages in VAT ([2]; VAT) | number of VAT-Treg cells ([2]; VAT)
1 | LMFKGPHAVQAVG [Fat7] | positive | – | – | –
2 | TMYKNPRPMAATG [Fat1562] | – | slightly improved insulin sensitivity | reduced the number of CD11c^hi pro-inflammatory macrophages | moderately increased the numbers of VAT-Treg cells
